The METLIN SMRT retention time set (Domingo-Almenara et al. 2019)

Assay: gradient 5% acetonitrile 3 min, to 50% in 2 min, to 85% in 15 min, held 3 min, 100 µL/min
Conditions: column: Zorbax Extend-C18 2.1 x 50 mm; eluents: water / acetonitrile, 0.1% formic acid
How it was run: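 Data were gathered over 3 months by HPLC coupled to a quadrupole time-of-flight mass spectrometer, operated in positive and negative ionization mode. Mixtures of ~100 pure standards ran on a Zorbax Extend-C18 column (2.1 × 50 mm, 1.8 μm) at 100 μL/min, with water and acetonitrile each containing 0.1% formic acid and dead and dwell volumes of 40 μL and 900 μL. Retention time was read from adduct peaks picked by computer and checked manually.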

| Structure (SMILES) | RP-LC retention time [s] |
| --- | --- |
| CN(CCNc1nc2ccncc2n(Cc2ccccc2)c1=O)C1CCCCC1 | 573 |
| COc1ccc(OC)c(S(=O)(=O)N2CCc3nc(-c4ccccc4)[nH]c3C2)c1 | 536 |
| CCc1ccc2c(c1)-c1ccccc1S(=O)(=O)N2CC(=O)NCc1cccnc1 | 684 |
| Fc1ccc(-c2csc(Nc3ccc(Br)cn3)n2)cc1 | 1230 |
| CC(C)n1nnc2ccc(-c3noc(CNC(=O)c4ccccc4)n3)cc21 | 825 |
| CN(C)C(CNC(=O)c1cc(=O)c2ccccc2o1)c1ccccc1Cl (configuration not stated) | 650 |
| COc1ccc(OC)c(CNC(=O)C2CCN(Cc3cn(C)c4ccc(Cl)cc34)CC2)c1 | 717 |
| COCc1noc(CC2CCOC3(CCN(Cc4sccc4C)CC3)C2)n1 (configuration not stated) | 636 |
| COC(=O)Nc1ccc(S(=O)(=O)N2CCCC(C(F)(F)F)C2)cc1 (configuration not stated) | 837 |
| COc1ccc2ncc(S(=O)(=O)c3ccccc3)c(Nc3ccc4c(c3)OCCO4)c2c1 | 855 |
| Fc1cc(F)cc(-c2nnc(Cc3nc(-c4ccc(Cl)cc4)no3)o2)c1 | 1130 |
| Cc1nnc(-c2coc(S(=O)(=O)N3CCN(CC(C)C)CC3)c2)o1 | 587 |
| CCOc1ccc2ncc(S(=O)(=O)c3ccc(C)c(C)c3)c(N3CCN(C)CC3)c2c1 | 658 |
| COc1ccc(CN2CC3(CCN(S(=O)(=O)c4c(C)nn(C)c4C)CC3)C2=O)cc1 | 761 |
| CCCN(CCC)c1nc(-c2ccc(OC)cc2)nc2ccccc12 | 896 |
| Cc1ccc(-n2cc(C3=CCN(CC(=O)N4CCN(c5ccccn5)CC4)CC3)cn2)cc1C | 596 |
| Cc1ccccc1Cn1cc(-c2ccncc2)cc1C(=O)NC1CC1 | 648 |
| O=C(NCCN1CCOCC1)c1nnc(-c2ccc(S(=O)(=O)N3CCOCC3)cc2)o1 | 578 |
| COc1ccc(CNC(=O)Cn2nc3c(N4CCCCCC4)nccn3c2=O)cc1 | 679 |

Results, then the compound that gave them:

| RP-LC retention time [s] | Structure (SMILES) |
| --- | --- |
| 606 | O=C(c1cccnc1N1CCNC(c2ccccc2)C1)N1CCSCC1 (configuration not stated) |
| 683 | CN(C)c1ccc(C(CNC(=O)COc2ccc(Cl)cc2)N(C)C)cc1 (configuration not stated) |
| 979 | CCCS(=O)(=O)N1CC(=O)N(c2ccc(F)cc2F)C(C)(C(=O)NC2CCCCCC2)C1 (configuration not stated) |
| 737 | O=C(Cc1csc(NC(=O)NC2CCCCC2)n1)NCc1c(F)cccc1F |
| 904 | COc1ccccc1-c1nnc(-c2cc(S(=O)(=O)N(C)C)ccc2Cl)o1 |
| 696 | COc1ccc(NC(=O)Nc2c(-c3cccc(C)c3)nc3ccccn23)c(OC)c1 |
| 564 | Cc1nn(C)c(C)c1CCC(=O)N1CCN(c2ncccn2)CC1 |
| 902 | CC1CCCN(S(=O)(=O)c2ccc(-n3cnc(C(=O)NCC4CC4)c3)nc2)C1 (configuration not stated) |
| 625 | CCc1nccn1Cc1nc(-c2cccc(F)c2)no1 |
| 854 | CCCCCN1CC(=O)N(c2cccc(Cl)c2)[C@@H]2CS(=O)(=O)C[C@@H]21 |
| 616 | COC(=O)C(Cc1ccccc1)NC(=O)N1CCCn2nc(-c3ccncc3)cc2C1 (configuration not stated) |
| 942 | Cc1ccc(-c2cc(=O)n3c4ccccc4n(CC(=O)NC4CCCC4)c3n2)cc1 |
| 769 | Cc1sc(NC(=O)C2CCN(S(=O)(=O)c3cccs3)CC2)c(C(N)=O)c1C |
| 688 | Cc1ccc(Cl)c(NC(=O)c2[nH]c3cc(C)sc3c2CN(C)C)c1 |
| 1120 | Cc1cc(-c2c(C)sc(C)c2S(=O)(=O)NC2CCCc3ccccc32)n[nH]1 (configuration not stated) |
| 692 | COc1ccc(C(=O)Nc2nc(C)c3cc4c(cc3n2)OCO4)cc1 |
| 782 | CNC(=O)NCC(c1ccc(F)cc1)c1c[nH]c2ccccc12 (configuration not stated) |
| 1080 | CCOC(=O)c1c(C)oc2nc(C)nc(NCc3cccc(OC)c3)c12 |
